Experimental data from patent US20180016593A1, “HERBICIDE-RESISTANT SUNFLOWER PLANTS, POLYNUCLEOTIDES ENCODING HERBICIDE-RESISTANT ACETOHYDROXYACID SYNTHASE LARGE SUBUNIT PROTEINS, AND METHODS OF USE” (priority 2005, published 2018).

What was measured:
Assay in all cases: Greenhouse whole-plant imazapir dose response (Example 8)
Format in all cases: in vivo, Helianthus annuus
[1] = tested on: sunflower IR79 (Restorer Line, A205V); conditions: 14 DAT
Experimental: (§1) A greenhouse study was conducted to quantify and contrast the imazapir sensivity of the mutants A122T and A205V in different genetic backgrounds at the whole plant level in sunflower. Seeds of the different sunflower lines that were used in this study were obtained under field conditions.
(§2) Seeds were sown in Petri dishes and, after germination, plantlets were transplanted to pots of 10 cm of diameter in a potting media consisting of equal parts of vermiculite, soil and sand. Plants were grown in a greenhouse under natural light conditions supplemented with 400 W sodium halide lamps to provide a 16 hrs daylength. Day/night temperatures were 25 and 20° C., respectively. At the V2 stage 10 plants of each genotype were randomly assigned to each treatment consisting of […] imazapir doses (0, 40, 80, 160, 240, 320, 400 and 480 g ai/ha), and a zero-time biomass determination. Experiment was arranged as a randomized block design with a full factorial (sunflower line×treatment) arrangement of treatments and 10 replications.
(§3) On the day of herbicide application ten plants of each genotype were cut at the cotyledonal node and dried at 60° C. for 48 hrs zero-time for dried weight determination.
(§4) Height was determined as the distance between the cotyledonal node and the apex of each plant. For root biomass determination, each plant was taken from the pot and the potting media was washed out from the roots. Above ground biomass data from each line were converted to biomass accumulation after application by subtracting the appropriate average zero-time biomass from each sample. Dry biomass data were converted to percentages of the untreated control plants within each line to allow direct comparisons between groups. […]

[2] = tested on: sunflower GM1606 (Manteiner Line, A122T); conditions: 14 DAT
Experimental: as §1, §2, §3, §4

[3] = tested on: sunflower GIM 5-6 (Restorer Line, A122T); conditions: GIM5-6, 14 DAT
Experimental: as §1, §2, §3, §4

[4] = tested on: sunflower GIM 5-7 (Manteiner Line, A205V); conditions: GIM5-7, 14 DAT
Experimental: as §1, §2, §3, §4

[5] = tested on: sunflower GM40 (Manteiner Line, A122T); conditions: 14 DAT
Experimental: as §1, §2, §3, §4

[6] = tested on: sunflower IB920 (Manteiner Line, A205V); conditions: 14 DAT
Experimental: as §1, §2, §3, §4

CC(C)C1(C)N=C(c2ncccc2C(=O)O)NC1=O (centres unmarked) [imazapyr]
biomass accumulation (above ground dry weight) ([1]; 0.5x (40 g ai/ha)): 94.4 % of untreated plots
plant height ([1]; 0.5x (40 g ai/ha)): 92.8 % of untreated plots
root dry weight ([1]; 0.5x (40 g ai/ha)): 98.6 % of untreated plots
biomass accumulation (above ground dry weight) ([1]; 1x (80 g ai/ha)): 74.0 % of untreated plots
plant height ([1]; 1x (80 g ai/ha)): 80.9 % of untreated plots
root dry weight ([1]; 1x (80 g ai/ha)): 53.4 % of untreated plots
biomass accumulation (above ground dry weight) ([1]; 2x (160 g ai/ha)): 67.7 % of untreated plots
plant height ([1]; 2x (160 g ai/ha)): 74.9 % of untreated plots
root dry weight ([1]; 2x (160 g ai/ha)): 42.5 % of untreated plots
biomass accumulation (above ground dry weight) ([1]; 3x (240 g ai/ha)): 49.1 % of untreated plots
plant height ([1]; 3x (240 g ai/ha)): 55.7 % of untreated plots
root dry weight ([1]; 3x (240 g ai/ha)): 38.4 % of untreated plots
biomass accumulation (above ground dry weight) ([1]; 4x (320 g ai/ha)): 44.5 % of untreated plots
plant height ([1]; 4x (320 g ai/ha)): 52.8 % of untreated plots
root dry weight ([1]; 4x (320 g ai/ha)): 31.5 % of untreated plots
biomass accumulation (above ground dry weight) ([1]; 5x (400 g ai/ha)): 40.1 % of untreated plots
plant height ([1]; 5x (400 g ai/ha)): 41.7 % of untreated plots
root dry weight ([1]; 5x (400 g ai/ha)): 23.3 % of untreated plots
biomass accumulation (above ground dry weight) ([1]; 6x (480 g ai/ha)): 35.3 % of untreated plots
plant height ([1]; 6x (480 g ai/ha)): 33.2 % of untreated plots
root dry weight ([1]; 6x (480 g ai/ha)): 21.9 % of untreated plots
biomass accumulation (above ground dry weight) ([2]; 0.5x (40 g ai/ha)): 100.0 % of untreated plots
plant height ([2]; 0.5x (40 g ai/ha)): 97.0 % of untreated plots
root dry weight ([2]; 0.5x (40 g ai/ha)): 100 % of untreated plots
biomass accumulation (above ground dry weight) ([2]; 1x (80 g ai/ha)): 100.0 % of untreated plots
plant height ([2]; 1x (80 g ai/ha)): 95.7 % of untreated plots
root dry weight ([2]; 1x (80 g ai/ha)): 100.0 % of untreated plots
biomass accumulation (above ground dry weight) ([2]; 2x (160 g ai/ha)): 97.6 % of untreated plots
plant height ([2]; 2x (160 g ai/ha)): 95.2 % of untreated plots
root dry weight ([2]; 2x (160 g ai/ha)): 92.5 % of untreated plots
biomass accumulation (above ground dry weight) ([2]; 3x (240 g ai/ha)): 95.4 % of untreated plots
plant height ([2]; 3x (240 g ai/ha)): 95.7 % of untreated plots
root dry weight ([2]; 3x (240 g ai/ha)): 85.2 % of untreated plots
biomass accumulation (above ground dry weight) ([2]; 4x (320 g ai/ha)): 90.5 % of untreated plots
plant height ([2]; 4x (320 g ai/ha)): 94.1 % of untreated plots
root dry weight ([2]; 4x (320 g ai/ha)): 87.0 % of untreated plots
biomass accumulation (above ground dry weight) ([2]; 5x (400 g ai/ha)): 85.3 % of untreated plots
plant height ([2]; 5x (400 g ai/ha)): 94.3 % of untreated plots
root dry weight ([2]; 5x (400 g ai/ha)): 88.1 % of untreated plots
biomass accumulation (above ground dry weight) ([2]; 6x (480 g ai/ha)): 83.0 % of untreated plots
plant height ([2]; 6x (480 g ai/ha)): 91.4 % of untreated plots
root dry weight ([2]; 6x (480 g ai/ha)): 69.5 % of untreated plots
biomass accumulation (above ground dry weight) ([3]; 0.5x (40 g ai/ha)): 100.0 % of untreated plots
plant height ([3]; 0.5x (40 g ai/ha)): 100.0 % of untreated plots
root dry weight ([3]; 0.5x (40 g ai/ha)): 100 % of untreated plots
biomass accumulation (above ground dry weight) ([3]; 1x (80 g ai/ha)): 96.4 % of untreated plots
plant height ([3]; 1x (80 g ai/ha)): 100.0 % of untreated plots
root dry weight ([3]; 1x (80 g ai/ha)): 88.0 % of untreated plots
biomass accumulation (above ground dry weight) ([3]; 2x (160 g ai/ha)): 97.7 % of untreated plots
plant height ([3]; 2x (160 g ai/ha)): 99.1 % of untreated plots
root dry weight ([3]; 2x (160 g ai/ha)): 90.0 % of untreated plots
biomass accumulation (above ground dry weight) ([3]; 3x (240 g ai/ha)): 95.8 % of untreated plots
plant height ([3]; 3x (240 g ai/ha)): 98.1 % of untreated plots
root dry weight ([3]; 3x (240 g ai/ha)): 98.0 % of untreated plots
biomass accumulation (above ground dry weight) ([3]; 4x (320 g ai/ha)): 90.8 % of untreated plots
plant height ([3]; 4x (320 g ai/ha)): 91.0 % of untreated plots
root dry weight ([3]; 4x (320 g ai/ha)): 80.0 % of untreated plots
biomass accumulation (above ground dry weight) ([3]; 5x (400 g ai/ha)): 81.9 % of untreated plots
plant height ([3]; 5x (400 g ai/ha)): 94.3 % of untreated plots
root dry weight ([3]; 5x (400 g ai/ha)): 80.0 % of untreated plots
biomass accumulation (above ground dry weight) ([3]; 6x (480 g ai/ha)): 78.0 % of untreated plots
plant height ([3]; 6x (480 g ai/ha)): 85.8 % of untreated plots
root dry weight ([3]; 6x (480 g ai/ha)): 65.8 % of untreated plots
biomass accumulation (above ground dry weight) ([4]; 0.5x (40 g ai/ha)): 92.9 % of untreated plots
plant height ([4]; 0.5x (40 g ai/ha)): 79.1 % of untreated plots
root dry weight ([4]; 0.5x (40 g ai/ha)): 79.2 % of untreated plots
biomass accumulation (above ground dry weight) ([4]; 1x (80 g ai/ha)): 75.1 % of untreated plots
plant height ([4]; 1x (80 g ai/ha)): 76.7 % of untreated plots
root dry weight ([4]; 1x (80 g ai/ha)): 56.3 % of untreated plots
biomass accumulation (above ground dry weight) ([4]; 2x (160 g ai/ha)): 55.1 % of untreated plots
plant height ([4]; 2x (160 g ai/ha)): 57.7 % of untreated plots
root dry weight ([4]; 2x (160 g ai/ha)): 40.6 % of untreated plots
biomass accumulation (above ground dry weight) ([4]; 3x (240 g ai/ha)): 45.6 % of untreated plots
plant height ([4]; 3x (240 g ai/ha)): 55.3 % of untreated plots
root dry weight ([4]; 3x (240 g ai/ha)): 40.2 % of untreated plots
biomass accumulation (above ground dry weight) ([4]; 4x (320 g ai/ha)): 31.8 % of untreated plots
plant height ([4]; 4x (320 g ai/ha)): 27.3 % of untreated plots
root dry weight ([4]; 4x (320 g ai/ha)): 34.0 % of untreated plots
biomass accumulation (above ground dry weight) ([4]; 5x (400 g ai/ha)): 34.2 % of untreated plots
plant height ([4]; 5x (400 g ai/ha)): 37.2 % of untreated plots
root dry weight ([4]; 5x (400 g ai/ha)): 48.5 % of untreated plots
biomass accumulation (above ground dry weight) ([4]; 6x (480 g ai/ha)): 36.8 % of untreated plots
plant height ([4]; 6x (480 g ai/ha)): 30.0 % of untreated plots
root dry weight ([4]; 6x (480 g ai/ha)): 43.1 % of untreated plots
biomass accumulation (above ground dry weight) ([5]; 0.5x (40 g ai/ha)): 96.5 % of untreated plots
plant height ([5]; 0.5x (40 g ai/ha)): 99.6 % of untreated plots
root dry weight ([5]; 0.5x (40 g ai/ha)): 100 % of untreated plots
biomass accumulation (above ground dry weight) ([5]; 1x (80 g ai/ha)): 94.1 % of untreated plots
plant height ([5]; 1x (80 g ai/ha)): 97.4 % of untreated plots
root dry weight ([5]; 1x (80 g ai/ha)): 100 % of untreated plots
biomass accumulation (above ground dry weight) ([5]; 2x (160 g ai/ha)): 97.6 % of untreated plots
plant height ([5]; 2x (160 g ai/ha)): 95.2 % of untreated plots
root dry weight ([5]; 2x (160 g ai/ha)): 100 % of untreated plots
biomass accumulation (above ground dry weight) ([5]; 3x (240 g ai/ha)): 95.8 % of untreated plots
plant height ([5]; 3x (240 g ai/ha)): 93.0 % of untreated plots
root dry weight ([5]; 3x (240 g ai/ha)): 92.2 % of untreated plots
biomass accumulation (above ground dry weight) ([5]; 4x (320 g ai/ha)): 88.3 % of untreated plots
plant height ([5]; 4x (320 g ai/ha)): 93.0 % of untreated plots
root dry weight ([5]; 4x (320 g ai/ha)): 98.1 % of untreated plots
biomass accumulation (above ground dry weight) ([5]; 5x (400 g ai/ha)): 85.6 % of untreated plots
plant height ([5]; 5x (400 g ai/ha)): 93.9 % of untreated plots
root dry weight ([5]; 5x (400 g ai/ha)): 84.2 % of untreated plots
biomass accumulation (above ground dry weight) ([5]; 6x (480 g ai/ha)): 76.8 % of untreated plots
plant height ([5]; 6x (480 g ai/ha)): 84.3 % of untreated plots
root dry weight ([5]; 6x (480 g ai/ha)): 74.3 % of untreated plots
biomass accumulation (above ground dry weight) ([6]; 0.5x (40 g ai/ha)): 93.9 % of untreated plots
plant height ([6]; 0.5x (40 g ai/ha)): 96.2 % of untreated plots
root dry weight ([6]; 0.5x (40 g ai/ha)): 94.0 % of untreated plots
biomass accumulation (above ground dry weight) ([6]; 1x (80 g ai/ha)): 87.9 % of untreated plots
plant height ([6]; 1x (80 g ai/ha)): 80.0 % of untreated plots
root dry weight ([6]; 1x (80 g ai/ha)): 89.6 % of untreated plots
biomass accumulation (above ground dry weight) ([6]; 2x (160 g ai/ha)): 58.8 % of untreated plots
plant height ([6]; 2x (160 g ai/ha)): 61.5 % of untreated plots
root dry weight ([6]; 2x (160 g ai/ha)): 50.7 % of untreated plots
biomass accumulation (above ground dry weight) ([6]; 3x (240 g ai/ha)): 48.4 % of untreated plots
plant height ([6]; 3x (240 g ai/ha)): 40.9 % of untreated plots
root dry weight ([6]; 3x (240 g ai/ha)): 37.3 % of untreated plots
biomass accumulation (above ground dry weight) ([6]; 4x (320 g ai/ha)): 35.5 % of untreated plots
plant height ([6]; 4x (320 g ai/ha)): 27.9 % of untreated plots
root dry weight ([6]; 4x (320 g ai/ha)): 32.8 % of untreated plots
plant height ([6]; 5x (400 g ai/ha)): 30.0 % of untreated plots
root dry weight ([6]; 5x (400 g ai/ha)): 25.4 % of untreated plots
biomass accumulation (above ground dry weight) ([6]; 6x (480 g ai/ha)): 29.4 % of untreated plots
plant height ([6]; 6x (480 g ai/ha)): 27.1 % of untreated plots
root dry weight ([6]; 6x (480 g ai/ha)): 19.4 % of untreated plots
